Assay results from patent publication US8076488B2, “Bicyclic urea derivatives useful in the treatment of cancer and other disorders” (Bayer Healthcare LLC, priority 2003, dated 2011).

molecular target: T1, c-Raf kinase (Lck-activated c-Raf, Raf-1) (Homo sapiens, UniProt P04049); assay: c-Raf (Raf-1) biochemical assay (radioactive filtermat assay, MEK-1 substrate); conditions: at 1 micromolar compound; 5 μM ATP, 32° C., 1 hour
T1 construct: GST-c-Raf (from amino acid 302 to amino acid 648); made in house; host or cells: Sf9 insect cells (baculovirus; co-infection with full-length Lck)
Procedure: Biological Tests c-Raf (Raf-1) Biochemical Assay Purification of Proteins Used in the Assay
The c-Raf biochemical assay was performed with a c-Raf enzyme that was activated (phosphorylated) by Lck kinase. Lck-activated c-Raf (Lck/c-Raf) was produced in Sf9 insect cells by co-infecting cells with baculoviruses expressing, under the control of the polyhedrin promoter, GST-c-Raf (from amino acid 302 to amino acid 648) and Lck (full-length). Both baculoviruses were used at the multiplicity of infection of 2.5 and the cells were harvested 48 hours post infection.
MEK-1 protein was produced in Sf9 insect cells by infecting cells with the baculovirus expressing GST-MEK-1 (full-length) fusion protein at the multiplicity of infection of 5 and harvesting the cells 48 hours post infection. Similar purification procedure was used for GST-c-Raf 302-648 and GST-MEK-1.
Transfected cells were suspended at 100 mg of wet cell biomass per mL in a buffer containing 10 mM sodium phosphate, 140 mM sodium chloride pH 7.3, 0.5% Triton X-100 and the protease inhibitor cocktail. The cells were disrupted with Polytron homogenizer and centrifuged 30,000 g for 30 minutes. The 30,000 g supernatant was applied onto GSH-Sepharose. The resin was washed with a buffer containing 50 mM Tris, pH 8.0, 150 mM NaCl and 0.01% Triton X-100. The GST-tagged proteins were eluted with a solution containing 100 mM Glutathione, 50 mM Tris, pH 8.0, 150 mM NaCl and 0.01% Triton X-100. The purified proteins were dialyzed into a buffer containing 20 mM Tris, pH 7.5, 150 mM NaCl and 20% Glycerol.
Biochemical Assay Protocol and Results
The compounds were serially diluted in DMSO using three-fold dilutions to stock concentrations ranging typically from 50 μM to 20 nM (final concentrations in the assay range from 1 μM to 0.4 nM). The c-Raf biochemical assay was performed as a radioactive filtermat assay in 96-well Costar polypropylene plates (Costar 3365). The plates were loaded with 75 μL solution containing 50 mM HEPES pH 7.5, 70 mM NaCl, 80 ng of Lck/c-Raf and 1 μg MEK-1. Subsequently, 2 μL of the serially diluted individual compounds were added to the reaction, prior to the addition of ATP. The reaction was initiated with 25 μL ATP solution containing 5 μM ATP and 0.3 μCi [33P]-ATP. The plates were sealed and incubated at 32° C. for 1 hour. The reaction was quenched with the addition of 50 μl of 4% Phosphoric Acid and harvested onto P30 filtermats (PerkinElmer) using a Wallac Tomtec Harvester. Filtermats were washed with 1% Phosphoric Acid first and deinonized H2O second. The filters were dried in a microwave, soaked in scintillation fluid and read in a Wallac 1205 Betaplate Counter (Wallac Inc., Atlanta, Ga., U.S.A.). The results were expressed as percent inhibition. % Inhibition=[[…]]×100 where • Tib=(counts per minute with inhibitor)−(background) • Ti=(counts per minute without inhibitor)−(background)

T1 sequence (P04049 302-648): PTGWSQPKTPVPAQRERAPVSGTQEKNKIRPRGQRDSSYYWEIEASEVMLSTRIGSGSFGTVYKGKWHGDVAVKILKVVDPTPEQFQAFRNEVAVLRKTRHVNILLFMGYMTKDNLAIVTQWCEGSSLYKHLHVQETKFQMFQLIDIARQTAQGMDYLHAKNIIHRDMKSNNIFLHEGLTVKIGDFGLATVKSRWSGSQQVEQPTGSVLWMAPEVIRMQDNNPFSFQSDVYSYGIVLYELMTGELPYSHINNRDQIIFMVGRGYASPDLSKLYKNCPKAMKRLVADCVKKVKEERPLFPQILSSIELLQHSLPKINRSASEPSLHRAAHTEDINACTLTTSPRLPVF

| inhibition at 1 µM [%] | SMILES |
| --- | --- |
| > 40 | CNC(=O)c1cc(Oc2ccc(NC(=O)Nc3nc4ccc(OC)cc4s3)cc2)ccn1 [Example 14] |
| > 40 | CNC(=O)c1cc(Oc2ccc(NC(=O)Nc3nc4ccc(F)cc4s3)cc2)ccn1 [Example 13] |
| > 40 | O=C(Nc1cccc(Oc2ccnc(C(=O)Nc3cccnc3)c2)c1)Nc1ccc2c(c1)C(F)(F)OC(F)(F)O2 [Example 169] |
| > 40 | CCN(CC)CCn1ncc2cc(NC(=O)Nc3ccc(Oc4ccnc(C(=O)NC)c4)cc3F)ccc21 [Example 45] |
| > 40 | CNC(=O)c1cc(Oc2ccc(NC(=O)Nc3nc4ccc(Cl)cc4s3)cc2)ccn1 [Example 11] |
| > 40 | O=C(Nc1ccc(Oc2ccnc(C(=O)NCCN3CCCC3)c2)cc1)Nc1ccc2c(c1)OCCO2 [Example 159] |
| > 40 | O=C(Nc1ccc(Oc2ccnc(C(=O)NCCCn3ccnc3)c2)cc1)Nc1ccc2c(c1)OCCO2 [Example 158] |
| > 40 | CNC(=O)c1cc(Oc2ccc(NC(=O)Nc3ccc4cnn(C)c4c3)cc2)ccn1 [Example 24] |
| > 40 | O=C(Nc1ccc(Oc2ccnc(C(=O)NCCCn3ccnc3)c2)cc1)Nc1ccc2c(c1)C(F)(F)OC(F)(F)O2 [Example 145, N-[3-(1H-imidazol-1-yl)propyl]-4-[4-({[(2,2,4,4-tetrafluoro-4H-1,3-benzodioxin-6-yl)amino]carbonyl}amino)phenoxy]pyridine-2-carboxamide] |
| > 40 | Cn1ncc2cc(NC(=O)Nc3ccc(Oc4ccnc(C(=O)NCC5CC5)c4)cc3)ccc21 [Example 162] |
